{"source": "patent US20250109127A1", "about": "“METHODS OF USE OF PHENOXYPROPYLAMINE COMPOUNDS TO TREAT DEPRESSION” (Minerva Neurosciences, Inc., priority 2013, published 2025)", "test_system": "dopamine release in the rat prefrontal cortex", "experiment": "Microdialysis: dopamine release in prefrontal cortex after I.P. administration", "type": "in vivo", "details": "for DOPAMINE in dialysate, MEAN / DOPAMINE in dialysate, individual animals: Citalopram 10 mg/kg I.P.", "method": "The aim of the study was to evaluate, using microdialysis, the effects of an intraperitoneal (I.P.) administration in rats of three different doses of SON-117 on dopamine and its metabolites, serotonin and its metabolite (5-HIAA), and norepinephrine levels in prefrontal cortex.\nThirty-two adult male Wistar rats were used for the whole study (4 groups of eight animals planned for the study, Table 1).\nSurgery was performed on rats weighing about 300 g at the beginning of the experiments. Rats were anaesthetized with Ketamine (50 mg/kg) & Xylazine (15 mg/kg) by intramuscular administration. The animals were placed in a stereotaxic apparatus in the flat-skull position at a constant setting of −3.3 mm between ear bars and the incisor bar. The animals were treated with a local anesthesic (xylocaine 1%, Astra Zeneca) and an analgesic (Temgesic, from Schering Plough, 0.05 mg/kg, s.c.). A rostrocaudal midline incision was made with a lancet to expose the dorsal skull surface. The “stereotaxic zero” was defined by the Bregma in accordance with Paxinos and Watson's atlas (1986). A hole was drilled in the skull with a drill and the meninges were pierced with a sterile needle to implant a CMA12 guide cannula which later received the dialysis probe.\nCoordinates used for implanting guide cannula in prefrontal cortex from Bregma were anteroposterior 3.7 mm, mediolateral 0.8 mm, and dorsoventral −2 mm (top of the probe was at −5 mm). The guide cannula was fixed to the skull with two stainless steel screws (1.88 mm outside diameter) anchored. An application of dental cement was added. A plastic collar allowed each animal to be tethered to a Swivel assembly of the CMA 120 awake animal system. Following surgery, rats were kept in individual cages and allowed to recover for a minimum of 3-5 days before the experimentation. The rats were handled and put in plastic bowl for 10 min at least every day to habituate the animals to their new environment for the dialysis. An I.P. administration with saline was also performed every day.\nDialysis probes (CMA12/3 mm, membrane, 20 kD cut-off, Carnegie Medicine, Stockholm, Sweden), were carefully washed before inserting into the guide cannula. The wash was performed with the artificial cerebrospinal fluid (aCSF) medium (NaCl 147 mM, KCl 2.7 mM, CaCl2 1.2 mM, MgCl2 0.85 mM) at room temperature. The dialysis system was then equilibrated at 20° C. at a perfusion rate of 1 μl/min with a Carnegie pump (CMA100). All catheters (FEP tubing, internal volume of 1.2 μl/10 cm, and tubing adaptors) used for microdialysis were treated in the same conditions.\nThe probes duly prepared were inserted into the guide cannula and the CMA120 Swivel assembly secured to the animal using a plastic collar. Flow through the dialysis probe with aCSF was maintained at a rate of 1 μl/min during the whole experimentation. The first four fractions (corresponding to 2 hours) were discarded to avoid the effects of parenchymal disturbance and to ensure that an approximate steady-state level was reached. Fractions were then collected over a period of 8.5 h during which time the animals remained quiet. The dialysates were automatically collected with an autosampler (microfraction collector CMA 140, Carnegie Medicin) and stored at −80° C. until analysis. […] Perfusion was then maintained for 7 hours with aCSF. The dialysates (30 μl) were collected into 300 μl vials, transferred into dry ice and then kept frozen (−80° C.) until analysis. Frozen samples were shipped to a partner for analysis. At the end of the microdialysis study, a PBS with colored ink was perfused through the probe in order to visualize the dialyzed area.\nCatecholamine assay: Concentrations of dopamine, DOPAC, HVA, 5-HIAA, 5-HT, and norepinephrin were determined for each sample by HPLC coupled with electrochemical detection.", "note": "Several values for one entry are separate records, joined by “and”; a condition that tells them apart may be missing. Equal entries are not always repeated."}
{"smiles": "CN(C)CCCC1(c2ccc(F)cc2)OCc2cc(C#N)ccc21", "note": "(centres unmarked) [Citalopram, citalopram, reference compound]", "values": [{"measurement": "DOPAMINE in dialysate, MEAN", "setting": "T0-T30 min", "value": "125.10 % of respective basal"}, {"measurement": "DOPAMINE in dialysate, MEAN", "setting": "T30-T1 h", "value": "100.99 % of respective basal"}, {"measurement": "DOPAMINE in dialysate, individual animals", "setting": "T30-T1 h", "value": "140.37 % of respective basal and 66.54 % of respective basal and 36.31 % of respective basal and 85.24 % of respective basal and 123.31 % of respective basal and 48.94 % of respective basal and 154.56 % of respective basal and 96.98 % of respective basal"}, {"measurement": "DOPAMINE in dialysate, MEAN", "setting": "T1 h 30-T2 h", "value": "186.16 % of respective basal"}, {"measurement": "DOPAMINE in dialysate, individual animals", "setting": "T1 h 30-T2 h", "value": "866.34 % of respective basal and 87.95 % of respective basal and 112.22 % of respective basal and 92.11 % of respective basal and 107.27 % of respective basal and 89.55 % of respective basal and 53.23 % of respective basal and 51.41 % of respective basal"}, {"measurement": "DOPAMINE in dialysate, MEAN", "setting": "T1 h-T1 h 30", "value": "170.05 % of respective basal"}, {"measurement": "DOPAMINE in dialysate, individual animals", "setting": "T1 h-T1 h 30", "value": "573.74 % of respective basal and 97.67 % of respective basal and 64.11 % of respective basal and 123.43 % of respective basal and 30.69 % of respective basal and 110.39 % of respective basal and 169.03 % of respective basal and 176.68 % of respective basal"}, {"measurement": "DOPAMINE in dialysate, MEAN", "setting": "T2 h 30-T3 h", "value": "108.77 % of respective basal"}, {"measurement": "DOPAMINE in dialysate, individual animals", "setting": "T2 h 30-T3 h", "value": "225.14 % of respective basal and 50.88 % of respective basal and 108.16 % of respective basal and 122.69 % of respective basal and 62.34 % of respective basal and 107.84 % of respective basal and 55.41 % of respective basal and 165.66 % of respective basal"}, {"measurement": "DOPAMINE in dialysate, MEAN", "setting": "T2 h-T2 h 30", "value": "255.07 % of respective basal"}, {"measurement": "DOPAMINE in dialysate, individual animals", "setting": "T2 h-T2 h 30", "value": "1031.09 % of respective basal and 91.06 % of respective basal and 160.05 % of respective basal and 100.78 % of respective basal and 166.56 % of respective basal and 132.77 % of respective basal and 334.66 % of respective basal and 26.69 % of respective basal"}, {"measurement": "DOPAMINE in dialysate, MEAN", "setting": "T3 h 30-T4 h", "value": "115.67 % of respective basal"}, {"measurement": "DOPAMINE in dialysate, individual animals", "setting": "T3 h 30-T4 h", "value": "243.96 % of respective basal and 23.86 % of respective basal and 113.64 % of respective basal and 73.20 % of respective basal and 174.87 % of respective basal and 59.22 % of respective basal and 97.27 % of respective basal and 119.98 % of respective basal"}, {"measurement": "DOPAMINE in dialysate, MEAN", "setting": "T3 h-T3 h 30", "value": "151.97 % of respective basal"}, {"measurement": "DOPAMINE in dialysate, individual animals", "setting": "T3 h-T3 h 30", "value": "49.37 % of respective basal and 157.89 % of respective basal and 78.55 % of respective basal and 231.36 % of respective basal and 125.19 % of respective basal and 190.71 % of respective basal and 225.63 % of respective basal"}, {"measurement": "DOPAMINE in dialysate, MEAN", "setting": "T4 h 30-T5 h", "value": "103.71 % of respective basal"}, {"measurement": "DOPAMINE in dialysate, individual animals", "setting": "T4 h 30-T5 h", "value": "201.72 % of respective basal and 24.62 % of respective basal and 85.39 % of respective basal and 56.71 % of respective basal and 60.52 % of respective basal and 195.94 % of respective basal and 92.15 % of respective basal"}, {"measurement": "DOPAMINE in dialysate, MEAN", "setting": "T4 h-T4 h 30", "value": "197.23 % of respective basal"}, {"measurement": "DOPAMINE in dialysate, individual animals", "setting": "T4 h-T4 h 30", "value": "337.02 % of respective basal and 36.95 % of respective basal and 127.24 % of respective basal and 110.17 % of respective basal and 45.45 % of respective basal and 94.94 % of respective basal and 255.00 % of respective basal and 192.48 % of respective basal"}, {"measurement": "DOPAMINE in dialysate, MEAN", "setting": "T5 h 30-T6 h", "value": "143.61 % of respective basal"}, {"measurement": "DOPAMINE in dialysate, individual animals", "setting": "T5 h 30-T6 h", "value": "63.71 % of respective basal and 183.35 % of respective basal and 112.87 % of respective basal and 229.69 % of respective basal and 57.13 % of respective basal and 228.31 % of respective basal and 145.07 % of respective basal"}, {"measurement": "DOPAMINE in dialysate, MEAN", "setting": "T5 h-T5 h 30", "value": "151.58 % of respective basal"}, {"measurement": "DOPAMINE in dialysate, individual animals", "setting": "T5 h-T5 h 30", "value": "209.25 % of respective basal and 54.45 % of respective basal and 141.19 % of respective basal and 97.47 % of respective basal and 150.97 % of respective basal and 246.92 % of respective basal"}, {"measurement": "DOPAMINE in dialysate, MEAN", "setting": "T6 h 30-T7 h", "value": "152.65 % of respective basal"}, {"measurement": "DOPAMINE in dialysate, individual animals", "setting": "T6 h 30-T7 h", "value": "300.59 % of respective basal and 88.72 % of respective basal and 128.46 % of respective basal and 71.16 % of respective basal and 147.69 % of respective basal and 77.59 % of respective basal and 325.54 % of respective basal and 82.54 % of respective basal"}, {"measurement": "DOPAMINE in dialysate, MEAN", "setting": "T6 h-T6 h 30", "value": "90.10 % of respective basal"}, {"measurement": "DOPAMINE in dialysate, individual animals", "setting": "T6 h-T6 h 30", "value": "138.93 % of respective basal and 48.75 % of respective basal and 107.97 % of respective basal and 57.49 % of respective basal and 83.90 % of respective basal and 102.96 % of respective basal and 83.47 % of respective basal and 66.13 % of respective basal"}, {"measurement": "DOPAMINE in dialysate, MEAN", "setting": "T-30 min-T0 (pre-dose)", "value": "107.61 % of respective basal"}, {"measurement": "DOPAMINE in dialysate, MEAN", "setting": "T-1 h 30-T-1 h (pre-dose)", "value": "77.78 % of respective basal"}, {"measurement": "DOPAMINE in dialysate, individual animals", "setting": "T-1 h 30-T-1 h (pre-dose)", "value": "71.31 % of respective basal"}, {"measurement": "DOPAMINE in dialysate, MEAN", "setting": "T-1 h-T-30 min (pre-dose)", "value": "98.79 % of respective basal"}, {"measurement": "dopamine levels, increase (not significant)", "setting": "citalopram 10 mg/kg I.P., from T1.5 h and 2.5 h", "value": 255, "unit": "%"}]}
